Values belong to the compound of their own block, whether it stands above or below them.
Experiments:
CYP2E1 [1] = target: T1, CYP2E1 (Rattus norvegicus, UniProt P05182); experiment: Pharmacokinetics of probe substrate CLX and 6-OH-CLX in rats after 21 days of SM pretreatment; settings: single oral 30 mg/kg CLX, solvent control group
Description: (§1) SD rats were randomly divided into two groups (six rats in each group). One group was orally administered 4% HP-β-CD (w/v) solution as a solvent control group and the other group was orally administered SM 45 mg/kg (dissolved in 4% HP-β-CD (w/v)) for 21 consecutive days. On the 22nd day, rats in the two groups were given a single oral dose of CLX 30 mg/kg (suspended in 0.5% CMC-Na solution (w/v)). […] After the final blood collection, rats were euthanized by intraperitoneal injection of 50% urethane.
(§2) The concentrations of APAP and its metabolites in rat plasma and the concentrations of CLX and 6-OH-CLX in rat plasma, and the phase I metabolic system in vitro were determined by HPLC—MS/MS. […] Briefly, a 50 μL plasma sample was vortexed with 10 μL of the internal standard solution, and 150 μL pf methanol was then added to the mixture and shaken for 3 min to precipitate the protein. The sample was centrifuged at 14,000 rpm for 5 min, and 10 µL of the supernatant was analyzed by LC–MS/MS. […] The noncompartmental analysis using Phoenix WinNonlin software (version 6.3, Pharsight Corp, Mountain View, CA, USA) was used to calculate the pharmacokinetic parameters of CLX and 6-OH-CLX.

Cyp2e1 [2] = experiment: Cyp2e1 mRNA and protein expression in mouse liver (RT-qPCR, Western blot); assay type: in vivo; settings: mice, single i.p. APAP 350 mg/kg, 24 h
Text: Antibodies against CYP2E1 were kindly provided by Proteintech Biotechnology.

APAP-induced ALI mice = experiment: APAP-induced ALI in mice: serum ALT/AST, liver reduced GSH, H&E histology; assay type: in vivo, mouse; settings: APAP 350 mg/kg i.p., 24 h
Description: The levels of ALT and AST in mouse serum and reduced GSH in mouse livers were measured by West China Frontier Pharmatech (Chengdu, China).
The right lower lobe of the mouse liver was fixed with 4% paraformaldehyde for 24 h in preparation for H&E staining. The embedding and slicing processes for H&E staining were performed by Ao’Chuang Biotechnology Co., Ltd. (Chengdu, China). Images were acquired with a phase contrast microscope with 20× and 40× objective lenses. The scale bars were added with ImageJ software.

CYP2E1 [3] = target: T1, CYP2E1; settings: in vivo
Description: as §1, §2

CYP2E1 [4] = target: CYP2E1 (Homo sapiens, UniProt P05181)
Description: (§3) The probe substrate CLX, 50 mM potassium phosphate buffer (KPI, pH 7.4), and 0.25 mg/mL HLMS or RLMs were mixed and then an NADPH-regenerating system (1 mM β-NADP, 5 mM D-glucose-6-phosphate, 1 U/mL glucose-6-phosphate dehydrogenase, and 5 mM MgCl2) were added to initiate reaction. […] HLMs or RLMs were incubated with CLX at 37 °C for 30 min. At the end of the incubation, 100 µL of precooled acetonitrile was added to terminate the reaction. After vortexing and centrifugation at 14,000 rpm for 5 min, 50 µL of supernatant mixed with 10 µL of the internal standard GEN was removed, and the sample was analyzed by HPLC–MS/MS.
(§4) Activities were expressed as a percentage of 6-OH-CLX production in the blank control.
(§5) Nonlinear regression analysis in GraphPad was used to calculate Km and Vmax. To determine the inhibitory type of CYP2E1 by SM, the above data were plotted as a Lineweaver–Burk plot.
(§6) Inhibition data were plotted as Dixon plots, and the inhibition constant (Ki) was calculated from the regression equation.

CYP2E1 [5] = target: T1, CYP2E1; settings: microsomes
Description: as §3, §4, §5, §6

CYP2E1 (Homo sapiens, UniProt P05181), sequence (P05181 whole entry): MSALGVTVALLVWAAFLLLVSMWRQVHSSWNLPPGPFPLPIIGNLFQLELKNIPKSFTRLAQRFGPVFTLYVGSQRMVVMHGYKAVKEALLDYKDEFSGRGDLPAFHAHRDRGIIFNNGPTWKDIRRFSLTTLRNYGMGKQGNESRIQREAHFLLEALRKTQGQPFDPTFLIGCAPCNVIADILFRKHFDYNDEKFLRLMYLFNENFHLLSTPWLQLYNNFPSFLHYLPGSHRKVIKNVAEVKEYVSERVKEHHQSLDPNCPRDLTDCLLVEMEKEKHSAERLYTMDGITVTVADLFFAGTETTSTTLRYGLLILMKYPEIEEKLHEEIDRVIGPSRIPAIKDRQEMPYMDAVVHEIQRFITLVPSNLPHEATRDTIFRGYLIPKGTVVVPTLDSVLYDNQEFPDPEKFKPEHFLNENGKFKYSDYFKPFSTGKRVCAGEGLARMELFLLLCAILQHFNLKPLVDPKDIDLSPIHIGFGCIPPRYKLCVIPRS
T1 sequence (P05182 whole entry): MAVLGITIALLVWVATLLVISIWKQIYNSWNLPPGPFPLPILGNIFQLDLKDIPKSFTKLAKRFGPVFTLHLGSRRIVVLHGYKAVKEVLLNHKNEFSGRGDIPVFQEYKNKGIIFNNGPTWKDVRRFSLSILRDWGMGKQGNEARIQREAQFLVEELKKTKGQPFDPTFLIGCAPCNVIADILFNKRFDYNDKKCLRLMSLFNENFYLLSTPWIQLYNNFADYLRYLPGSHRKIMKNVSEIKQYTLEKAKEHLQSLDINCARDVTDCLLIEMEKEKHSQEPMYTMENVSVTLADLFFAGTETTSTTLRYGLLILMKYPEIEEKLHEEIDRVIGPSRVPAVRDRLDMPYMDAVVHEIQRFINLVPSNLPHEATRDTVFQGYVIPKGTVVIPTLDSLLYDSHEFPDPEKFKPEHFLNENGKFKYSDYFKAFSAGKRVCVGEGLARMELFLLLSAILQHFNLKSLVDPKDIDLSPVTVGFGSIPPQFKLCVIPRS

Compound: O=c1[nH]c2cc(Cl)c(O)cc2o1 [6-OH-CLX]
AUC0-t of 6-OH-CLX (CYP2E1 [1]): 287.58 ± 106.13 ng·h/mL
AUC0-∞ of 6-OH-CLX (CYP2E1 [1]): 325.78 ± 127.17 ng·h/mL

liver Cyp2e1 mRNA and protein expression vs solvent control group (Cyp2e1 [2]): significantly upregulated
Compound: CC(=O)Nc1ccc(O)cc1 [APAP, Acetaminophen]
liver histopathology (H&E), hepatic lobule structure (APAP-induced ALI mice): severely damaged
liver reduced GSH content vs solvent control group (APAP-induced ALI mice): significantly reduced
serum ALT level vs solvent control group (APAP-induced ALI mice): significantly increased
serum AST level vs solvent control group (APAP-induced ALI mice): significantly increased

CL of CLX (CYP2E1 [3]): 4.5353 ± 0.6998 mL/min/kg
Vd of CLX (CYP2E1 [3]): 1.56626 ± 0.67478 L/kg
t1/2 of CLX (CYP2E1 [3]): 3.92 ± 1.25 h
tmax of CLX (CYP2E1 [3]): 0.58 ± 0.30 h
Km of CLX (CYP2E1 [4]): 1827 ± 318 µM
Vmax of CLX (CYP2E1 [4]): 4.56 ± 1.67 nM/h/mg Protein
IC50 (CYP2E1 [4]; microsomes): 14.8 µM
Ki (CYP2E1 [4]; microsomes): 23.2 µM
IC50 (CYP2E1 [5]): 26.1 µM
Ki (CYP2E1 [5]): 9.49 µM
Compound: silymarin
